Data from US20120245155A1, “FUSED HETEROCYCLIC COMPOUND HAVING AMINO GROUP” (Shionogi & Co., Ltd., priority 2009, published 2012).

What was measured:
[1] = system: Neuroblastoma SH—SY5Y cells (SH/APPwt) with human wild-type β-APP excessively expressed; assay: Measurement of β-amyloid (Aβ) production inhibitory effect in cell; assay type: cell-based; settings: 24 hours incubation, Amyloid β 1-40 by HTRF, read-out: amount needed to inhibit Aβ production by 50% (IC50)
Experimental: Neuroblastoma SH—SY5Y cells (SH/APPwt) with human wild-type p-APP excessively expressed therein were prepared at 8×10^5 cells/mL, and 150 μl portions thereof were inoculated into each well of a 96-well culture plate (Falcon). The cells were cultured for 2 hours at 37° C. in a 5% gaseous carbon dioxide incubator. Then, a solution which had been preliminarily prepared by adding and suspending the test compound (DMSO (dimethyl sulfoxide) solution) so as to be 2 μl/50 μl medium was added to the cell sap. Namely, the final DMSO concentration was 1%, and the amount of the cell culture was 200 μl. After the incubation was performed for 24 hours from the addition of the test compound, 100 μl of the culture supernatant was collected from each fraction. The amount of the Aβ in each fraction was measured.
The Aβ amount was measured as follows. 10 μl of a homogeneous time resolved fluorescence (HTRF) measurement reagent (Amyloid β 1-40 peptide; IBA Molecular Holding, S. A.) and 10 μl of the culture supernatant were put into a 384-well half area microplate (black microplate, Costar) and mixed with each other, and then left standing overnight at 4° C. while the light was shielded. Then, the fluorescence intensity (excitation wavelength: 337 nm, measurement wavelength: 620 nm and 665 nm) was measured with a Wallac 1420 multilabel counter (Perkin Elmer life sciences). The Aβ amount was determined from the count rate at each measurement wavelength (10000× Count 665/Count 620), and the amount needed to inhibit Aβ production by 50% (IC50) was calculated from at least six different dosages.

hERG (IKr) = biological target: T1, hERG (IKr) (Homo sapiens, UniProt Q12809); assay: hERG test; assay type: cell-based; settings: pH 7.4, HEK293 cells expressing hERG channel, whole cell patch clamp, concentration not given, read-out: % inhibition relative to the tail peak current (IKr)
T1 construct: expressed in transfected cells; host or cells: HEK293 cells
T1 sequence (Q12809 whole entry): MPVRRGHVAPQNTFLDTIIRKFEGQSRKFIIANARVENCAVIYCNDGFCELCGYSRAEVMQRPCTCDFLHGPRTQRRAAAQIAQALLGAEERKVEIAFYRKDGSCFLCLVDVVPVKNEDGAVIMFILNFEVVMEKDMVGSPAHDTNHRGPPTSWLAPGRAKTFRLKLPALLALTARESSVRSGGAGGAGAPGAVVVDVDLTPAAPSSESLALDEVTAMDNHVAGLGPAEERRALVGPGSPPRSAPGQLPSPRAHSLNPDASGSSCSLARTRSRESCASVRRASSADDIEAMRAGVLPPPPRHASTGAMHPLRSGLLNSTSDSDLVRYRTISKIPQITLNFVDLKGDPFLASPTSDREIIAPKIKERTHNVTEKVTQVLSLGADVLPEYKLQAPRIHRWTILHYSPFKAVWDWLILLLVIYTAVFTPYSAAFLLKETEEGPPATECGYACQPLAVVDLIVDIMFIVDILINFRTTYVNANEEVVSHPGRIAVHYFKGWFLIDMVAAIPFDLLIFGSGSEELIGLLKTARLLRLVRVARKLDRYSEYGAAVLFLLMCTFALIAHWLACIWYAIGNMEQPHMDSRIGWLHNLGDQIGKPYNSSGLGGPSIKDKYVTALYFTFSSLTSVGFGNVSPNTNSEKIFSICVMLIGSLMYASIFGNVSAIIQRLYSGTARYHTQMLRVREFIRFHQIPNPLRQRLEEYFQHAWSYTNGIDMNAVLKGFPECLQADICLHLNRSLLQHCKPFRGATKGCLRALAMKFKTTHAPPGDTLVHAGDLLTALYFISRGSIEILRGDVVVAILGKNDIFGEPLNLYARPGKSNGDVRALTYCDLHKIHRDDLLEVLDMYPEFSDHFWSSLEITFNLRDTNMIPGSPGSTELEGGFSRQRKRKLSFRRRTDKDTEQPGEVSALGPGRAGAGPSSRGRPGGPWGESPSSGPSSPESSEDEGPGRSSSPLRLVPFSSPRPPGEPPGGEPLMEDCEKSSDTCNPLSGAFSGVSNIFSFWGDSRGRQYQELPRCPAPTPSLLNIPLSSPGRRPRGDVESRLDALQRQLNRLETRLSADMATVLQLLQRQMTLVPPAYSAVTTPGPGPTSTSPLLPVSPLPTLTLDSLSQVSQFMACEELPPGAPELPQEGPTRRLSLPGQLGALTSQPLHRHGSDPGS
From the text: For the purpose of assessing risk of an electrocardiogram QT interval prolongation, effects on delayed rectifier K+ current (IKr), which plays an important role in the ventricular repolarization process of the compound of the present invention, is studied using HEK293 cells expressing human ether-a-go-go related gene (hERG) channel.
After a cell was retained at a membrane potential of −80 mV by whole cell patch clamp method using an automated patch clamp system (PatchXpress 7000A, Axon Instruments Inc.), IKr induced by depolarization pulse stimulation at +40 mV for 2 seconds and, further, repolarization pulse stimulation at −50 mV for 2 seconds was recorded. […] From the recording IKr, an absolute value of the tail peak current was measured based on the current value at the resting membrane potential using analysis software (DataXpress ver. 1, Molecular Devices Corporation). Further, the % inhibition relative to the tail peak current before application of the test compound was calculated, and compared with the vehicle-applied group (0.1% dimethyl sulfoxide solution) to assess influence of the test compound on IKr.

With `NC1=NC2(c3cc(-c4cncnc4)ccc3F)CCCC2CO1` (racemic) [Compound I-39] the IC50 [1] was at most 1 µM and the inhibition at 10 min (hERG (IKr)) was 19.3%.
